Values joined by “and” are separate entries in the source; they are usually repeats but may differ in a detail not shown here. Identical values can stand only once. Like-named read-outs stand apart in the source and are kept apart here.
Assays:
human Brd4 BD1 = human Brd4 BD1 (Homo sapiens, UniProt O60885); assay: HTRF assay, inhibition of H4ac4 peptide binding; conditions: for %HTRF Signal: Exp1-3
[1] = system: C. glabrata strains expressing WT and mutant Bdf1; assay: Growth inhibition in liquid media, C. glabrata lab strains; conditions: for EC50: Nakaseomyces glabratus, single experiments Exp1-3; for OD at 600 nm: Exp 1-3, Figure S9A
Protocol: Growth on Liquid Media with C. glabrata Lab Strains: Cells were grown at 30 °C in SC+M+C‐U medium (SC medium with 5 mM methionine, 0.25 mM cysteine, without uracil) to an OD600 of 0.5–0.8. […] Plates were incubated at 30 °C and OD600 was measured using a Multiskan FC Microplate Photometer (Thermo Fisher).

human Brd4 BD2 = target: T1, human Brd4 BD2 (Homo sapiens, UniProt O60885); assay: HTRF assay, inhibition of H4ac4 peptide binding; conditions: for %HTRF Signal: Exp1-3
T1 construct: GST‐tagged BD2 (residues 349–460) from human Brd4 (UniProt ID O60885); purchased Reaction Biology Corp

CgBdf1 BD1 [2] = target: CgBdf1 BD1 (Candida glabrata, UniProt Q6FWV7); assay: HTRF assay, inhibition of H4ac4 peptide binding; set-up: species or system C. glabrata
Sequence of CgBdf1 BD1 (Candida glabrata, UniProt Q6FWV7) (Q6FWV7 entry or part of it): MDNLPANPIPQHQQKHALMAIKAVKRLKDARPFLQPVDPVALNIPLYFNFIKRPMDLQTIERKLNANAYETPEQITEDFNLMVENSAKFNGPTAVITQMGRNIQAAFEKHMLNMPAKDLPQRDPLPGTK

CgBdf1 BD2 [3] = assay: Histone peptide array assay
Protocol: (§1) The array was prepared as described in the manufacturer's instructions. […] The array was then washed three times with binding buffer. Anti‐GST antibody (GE Healthcare) was used for the detection of GST‐tagged bromodomains.

CgBdf1 BD2 [4] = target: CgBdf1 BD2 (Candida glabrata, UniProt Q6FWV7); assay: biochemical; format: binding, C. glabrata
Sequence of CgBdf1 BD2 (Candida glabrata, UniProt Q6FWV7) (Q6FWV7 entry or part of it): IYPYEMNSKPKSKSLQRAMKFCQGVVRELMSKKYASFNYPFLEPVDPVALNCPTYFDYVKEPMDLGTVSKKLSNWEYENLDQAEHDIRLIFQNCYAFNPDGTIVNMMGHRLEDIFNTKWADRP

CgBdf1 BD1 [5] = assay: Histone peptide array assay
Protocol: as §1

[6] = Fig 1D/2A original data, single experiments Exp1-3

COc1ccc(CNc2nc(-c3ccccc3)nnc2C)cc1 [Compound 10]
IC50 (human Brd4 BD1): > 20 µM
EC50 ([1]; read-out: pEC50 (WT BDF1), Fig 2D (converted), WT C. glabrata): 180 µM
EC50 ([1]; read-out: pEC50 growth inhibition, Fig 2C (converted), strain BD1 Y-F): 149 µM
IC50 (human Brd4 BD2; Table S3, estimate, preliminary single-replicate HTRF assay, read-out: IC50 Brd4 BD2): > 20 µM
IC50 (CgBdf1 BD1 [2]; Fig 2C original data, analogs of 24, single experiments Exp1-3, read-out: pIC50 CgBD1 (converted)): 2.28 µM and 2.58 µM and 1.86 µM
IC50 (CgBdf1 BD1 [2]; Table S3, estimate, preliminary single-replicate HTRF assay, read-out: IC50 CgBdf1 BD1): 5 µM
Normalized (0 to 100%), WT, Average (CgBdf1 BD2 [3]; CgBdf1 BD2 WT, normalized peptide array signal): 0.608%
Raw data, WT, Left (CgBdf1 BD2 [3]; CgBdf1 BD2 WT, peptide array signal, left replicate): 0.004055
Raw data, WT, Rigt (CgBdf1 BD2 [3]; CgBdf1 BD2 WT, peptide array signal, right replicate): 0.00811
Normalized (0 to 100%), YF mutant, Average (CgBdf1 BD2 [3]; CgBdf1 BD2 YF mutant, normalized peptide array signal): 0.859%
Raw data, YF mutant, Left (CgBdf1 BD2 [3]; CgBdf1 BD2 YF mutant, peptide array signal, left replicate): 0.01319
Raw data, YF mutant, Right (CgBdf1 BD2 [3]; CgBdf1 BD2 YF mutant, peptide array signal, right replicate): 0.003988
IC50 (CgBdf1 BD2 [4]; Fig 2C original data, analogs of 24, single experiments Exp1-3, read-out: pIC50 CgBD2 (converted)): > 100 µM
IC50 (CgBdf1 BD2 [4]; Table S3, estimate, preliminary single-replicate HTRF assay, read-out: IC50 CgBdf1 BD2): > 20 µM
Normalized (0 to 100%), WT, Average (CgBdf1 BD1 [5]; CgBdf1 BD1 WT, normalized peptide array signal): 2.21%
Raw data, WT, Left (CgBdf1 BD1 [5]; CgBdf1 BD1 WT, peptide array signal, left replicate): 0.006616
Raw data, WT, Rigt (CgBdf1 BD1 [5]; CgBdf1 BD1 WT, peptide array signal, right replicate): 0.03749
Normalized (0 to 100%), YF mutant, Average (CgBdf1 BD1 [5]; CgBdf1 BD1 YF mutant, normalized peptide array signal): 0.293%
Raw data, YF mutant, Left (CgBdf1 BD1 [5]; CgBdf1 BD1 YF mutant, peptide array signal, left replicate): 0.003085
Raw data, YF mutant, Right (CgBdf1 BD1 [5]; CgBdf1 BD1 YF mutant, peptide array signal, right replicate): 0.002776

Cn1nccc1C(=O)NCc1ccc(-c2nc(-c3cccs3)no2)s1 [Compound 63]
pIC50 hBrd4 BD1 (human Brd4 BD1; [6]): 4.548 and 4.767 and 4.490
IC50 (human Brd4 BD1; Table S3, estimate, preliminary single-replicate HTRF assay, read-out: IC50 Brd4 BD1): > 20 µM
IC50 (human Brd4 BD1; Table S4, means ± SD, n=3, read-out: IC50 hBrd4 BD1): 25.9 ± 7.9 µM
%HTRF Signal (human Brd4 BD1; hBrd4 BD1, compound 2.10 nM): 98.36% and 97.75% and 98.52%
%HTRF Signal (human Brd4 BD1; hBrd4 BD1, compound 5.24 nM): 96.44% and 101.52% and 99.57%
%HTRF Signal (human Brd4 BD1; hBrd4 BD1, compound 13.11 nM): 96.19% and 93.70% and 100.56%
%HTRF Signal (human Brd4 BD1; hBrd4 BD1, compound 32.77 nM): 100.99% and 95.89% and 96.28%
%HTRF Signal (human Brd4 BD1; hBrd4 BD1, compound 81.92 nM): 95.84% and 103.64% and 102.41%
%HTRF Signal (human Brd4 BD1; hBrd4 BD1, compound 204.8 nM): 99.83% and 98.50% and 97.67%
%HTRF Signal (human Brd4 BD1; hBrd4 BD1, compound 512 nM): 96.60% and 93.56% and 96.36%
%HTRF Signal (human Brd4 BD1; hBrd4 BD1, compound 1280 nM): 82.33% and 98.72% and 104.43%
%HTRF Signal (human Brd4 BD1; hBrd4 BD1, compound 3200 nM): 94.57% and 92.75% and 93.44%
%HTRF Signal (human Brd4 BD1; hBrd4 BD1, compound 8000 nM): 83.80% and 81.87% and 89.53%
%HTRF Signal (human Brd4 BD1; hBrd4 BD1, compound 20000 nM): 44.73% and 68.85% and 53.13%
IC50 (human Brd4 BD1; hBrd4 BD1, individual experiments Exp1-3, Table S4, read-out: IC50): 17.1 µM and 32.4 µM and 28.3 µM
OD at 600 nm ([1]; WT BDF1 strain): 0.4973 and 0.4763 and 0.4793
OD at 600 nm ([1]; bdf1-bd1Δ strain): 0.2357 and 0.2187 and 0.2437
OD at 600 nm ([1]; bdf1-bd2Δ strain): 0.1390 and 0.1480 and 0.1420
%HTRF Signal (human Brd4 BD2; hBrd4 BD2, compound 2.10 nM): 99.18% and 94.17% and 90.64%
%HTRF Signal (human Brd4 BD2; hBrd4 BD2, compound 5.24 nM): 99.39% and 99.07% and 97.43%
%HTRF Signal (human Brd4 BD2; hBrd4 BD2, compound 13.11 nM): 98.29% and 101.48% and 93.41%
%HTRF Signal (human Brd4 BD2; hBrd4 BD2, compound 32.77 nM): 93.01% and 99.51% and 101.32%
%HTRF Signal (human Brd4 BD2; hBrd4 BD2, compound 81.92 nM): 102.00% and 98.93% and 106.04%
%HTRF Signal (human Brd4 BD2; hBrd4 BD2, compound 204.8 nM): 100.03% and 105.21% and 104.21%
%HTRF Signal (human Brd4 BD2; hBrd4 BD2, compound 512 nM): 98.01% and 98.41% and 97.72%
%HTRF Signal (human Brd4 BD2; hBrd4 BD2, compound 1280 nM): 99.07% and 96.81% and 100.81%
%HTRF Signal (human Brd4 BD2; hBrd4 BD2, compound 3200 nM): 102.84% and 98.87% and 104.55%
%HTRF Signal (human Brd4 BD2; hBrd4 BD2, compound 8000 nM): 108.22% and 84.57% and 107.59%
%HTRF Signal (human Brd4 BD2; hBrd4 BD2, compound 20000 nM): 102.02% and 76.14% and 105.57%
IC50 (human Brd4 BD2; hBrd4 BD2, individual experiments Exp1-3, Table S4, read-out: IC50): > 20 µM (2×) and 29.2 µM
%HTRF Signal (CgBdf1 BD1 [2]): 92.96% and 94.93% and 114.99%
%HTRF Signal (CgBdf1 BD1 [2]; CgBD1, compound 2.10 nM, Exp1-3): 89.22% and 91.15% and 92.46%
%HTRF Signal (CgBdf1 BD1 [2]; CgBD1, compound 13.11 nM, Exp1-3): 137.24% and 96.18% and 98.59%
%HTRF Signal (CgBdf1 BD1 [2]; CgBD1, compound 32.77 nM, Exp1-3): 89.47% and 88.02% and 93.78%
%HTRF Signal (CgBdf1 BD1 [2]; CgBD1, compound 81.92 nM, Exp1-3): 87.12% and 79.28% and 89.90%
%HTRF Signal (CgBdf1 BD1 [2]; CgBD1, compound 204.8 nM, Exp1-3): 79.54% and 70.30% and 76.77%
%HTRF Signal (CgBdf1 BD1 [2]; CgBD1, compound 512 nM, Exp1-3): 60.42% and 54.51% and 55.50%
%HTRF Signal (CgBdf1 BD1 [2]; CgBD1, compound 1280 nM, Exp1-3): 88.32% and 78.12% and 81.58%
%HTRF Signal (CgBdf1 BD1 [2]; CgBD1, compound 3200 nM, Exp1-3): 43.73% and 36.43% and 36.08%
%HTRF Signal (CgBdf1 BD1 [2]; CgBD1, compound 8000 nM, Exp1-3): 32.25% and 38.09% and 29.97%
%HTRF Signal (CgBdf1 BD1 [2]; CgBD1, compound 20000 nM, Exp1-3): 23.85% and 25.61% and 19.76%
IC50 (CgBdf1 BD1 [2]; CgBD1, individual experiments Exp1-3, Table S4, read-out: IC50): 0.62 µM and 0.71 µM and 0.5 µM
pIC50 CgBD1 (CgBdf1 BD1 [2]; [6]): 6.209 and 6.147 and 6.298
IC50 (CgBdf1 BD1 [2]; Table S4, means ± SD, n=3, read-out: IC50 CgBD1): 0.61 ± 0.1 µM
Raw data, WT (CgBdf1 BD2 [3]; peptide array signal, CgBdf1 BD2 WT, first replicate column): 0.004055
Normalized (0 to 100%), WT (CgBdf1 BD2 [3]; peptide array signal, CgBdf1 BD2 WT, mean of the two raw values): 0.593%
Raw data, WT (CgBdf1 BD2 [3]; peptide array signal, CgBdf1 BD2 WT, second replicate column): 0.007798
Raw data, YF mutant (CgBdf1 BD2 [3]; peptide array signal, CgBdf1 BD2 YF mutant, first replicate column): 0.009509
Normalized (0 to 100%), YF mutant (CgBdf1 BD2 [3]; peptide array signal, CgBdf1 BD2 YF mutant, mean of the two raw values): 0.675%
Raw data, YF mutant (CgBdf1 BD2 [3]; peptide array signal, CgBdf1 BD2 YF mutant, second replicate column): 0.003988
%HTRF Signal (CgBdf1 BD2 [4]): 91.88% and 95.70% and 106.64%
pIC50 CgBD2 (CgBdf1 BD2 [4]): ≤ 4
%HTRF Signal (CgBdf1 BD2 [4]; CgBD2, compound 2.10 nM, Exp1-3): 86.71% and 109.56% and 96.63%
%HTRF Signal (CgBdf1 BD2 [4]; CgBD2, compound 13.11 nM, Exp1-3): 107.12% and 98.52% and 93.70%
%HTRF Signal (CgBdf1 BD2 [4]; CgBD2, compound 32.77 nM, Exp1-3): 87.98% and 111.39% and 100.52%
%HTRF Signal (CgBdf1 BD2 [4]; CgBD2, compound 81.92 nM, Exp1-3): 93.69% and 107.27% and 99.37%
%HTRF Signal (CgBdf1 BD2 [4]; CgBD2, compound 204.8 nM, Exp1-3): 87.47% and 98.47% and 101.59%
%HTRF Signal (CgBdf1 BD2 [4]; CgBD2, compound 512 nM, Exp1-3): 94.84% and 95.89% and 102.41%
%HTRF Signal (CgBdf1 BD2 [4]; CgBD2, compound 1280 nM, Exp1-3): 108.51% and 97.41% and 103.91%
%HTRF Signal (CgBdf1 BD2 [4]; CgBD2, compound 3200 nM, Exp1-3): 96.71% and 89.90% and 106.57%
%HTRF Signal (CgBdf1 BD2 [4]; CgBD2, compound 8000 nM, Exp1-3): 101.27% and 103.49% and 103.29%
%HTRF Signal (CgBdf1 BD2 [4]; CgBD2, compound 20000 nM, Exp1-3): 98.71% and 85.34% and 94.42%
IC50 (CgBdf1 BD2 [4]; CgBD2, individual experiments Exp1-3, Table S4, read-out: IC50): > 20 µM
Raw data, WT (CgBdf1 BD1 [5]; peptide array signal, CgBdf1 BD1 WT, first replicate column): 0.003151
Normalized (0 to 100%), WT (CgBdf1 BD1 [5]; peptide array signal, CgBdf1 BD1 WT, mean of the two raw values): 1.81%
Raw data, WT (CgBdf1 BD1 [5]; peptide array signal, CgBdf1 BD1 WT, second replicate column): 0.03308
Raw data, YF mutant (CgBdf1 BD1 [5]; peptide array signal, CgBdf1 BD1 YF mutant, first replicate column): 0.001234
Normalized (0 to 100%), YF mutant (CgBdf1 BD1 [5]; peptide array signal, CgBdf1 BD1 YF mutant, mean of the two raw values): 0.216%
Raw data, YF mutant (CgBdf1 BD1 [5]; peptide array signal, CgBdf1 BD1 YF mutant, second replicate column): 0.003085

Source: PMC11904993, “Humanized Candida and NanoBiT Assays Expedite Discovery of Bdf1 Bromodomain Inhibitors With Antifungal Potential” (Advanced Science, 2025)
